Measurements reported in patent US8440708B2, “Triazole-substituted arylamides as P2X3 and P2X2/3 antagonists” (Roche Palo Alto LLC, priority 2007, dated 2013).

Tests used:
rat P2X3 receptor = target: T1, rat P2X3 receptor (Rattus norvegicus, UniProt P49654); experiment: P2X3/P2X2/3 FLIPR (Fluorometric Imaging Plate Reader) Assay, P2X3; type: cell-based; details: CHO-K1 cells transfected with rat P2X3; agonist α,β-meATP 1 μM; Table 1; read-out: P2X3 pKi (converted)
T1 construct: expressed in transfected cells; host or cells: CHO-K1
T1 sequence (P49654 1-397): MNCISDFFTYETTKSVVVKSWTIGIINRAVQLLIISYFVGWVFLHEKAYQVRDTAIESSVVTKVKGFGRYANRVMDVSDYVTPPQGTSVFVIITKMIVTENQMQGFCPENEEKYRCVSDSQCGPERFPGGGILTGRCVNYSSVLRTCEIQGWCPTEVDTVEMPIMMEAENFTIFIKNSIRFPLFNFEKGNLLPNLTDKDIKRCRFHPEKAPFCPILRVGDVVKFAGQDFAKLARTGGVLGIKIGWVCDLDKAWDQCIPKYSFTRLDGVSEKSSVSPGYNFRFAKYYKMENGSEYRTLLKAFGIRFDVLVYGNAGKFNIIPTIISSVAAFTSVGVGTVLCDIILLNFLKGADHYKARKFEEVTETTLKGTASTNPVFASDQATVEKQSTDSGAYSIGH
How it was run: (§1)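 Transfected CHO-K1 cells loaded with Fluo-3 AM (2 μM final) for 1 h at 37 °C, then compound preincubated 20 min at room temperature. α,β-meATP challenge at 1 μM (P2X3) or 5 μM (P2X2/3) final; peak calcium fluorescence (ex 488, em 510-570 nm) over 2 min fitted by nonlinear regression to inhibition curves.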

human P2X2/3 receptor = target: T2, human P2X2/3 receptor (Homo sapiens, UniProt P56373+Q9UBL9); experiment: P2X3/P2X2/3 FLIPR (Fluorometric Imaging Plate Reader) Assay, P2X2/3; type: cell-based; details: CHO-K1 cells transfected with human P2X2/3; agonist α,β-meATP 5 μM; Table 1; read-out: P2X2/3 pKi (converted)
T2 construct: expressed in transfected cells; host or cells: CHO-K1
T2 sequence (Q9UBL9 1-471): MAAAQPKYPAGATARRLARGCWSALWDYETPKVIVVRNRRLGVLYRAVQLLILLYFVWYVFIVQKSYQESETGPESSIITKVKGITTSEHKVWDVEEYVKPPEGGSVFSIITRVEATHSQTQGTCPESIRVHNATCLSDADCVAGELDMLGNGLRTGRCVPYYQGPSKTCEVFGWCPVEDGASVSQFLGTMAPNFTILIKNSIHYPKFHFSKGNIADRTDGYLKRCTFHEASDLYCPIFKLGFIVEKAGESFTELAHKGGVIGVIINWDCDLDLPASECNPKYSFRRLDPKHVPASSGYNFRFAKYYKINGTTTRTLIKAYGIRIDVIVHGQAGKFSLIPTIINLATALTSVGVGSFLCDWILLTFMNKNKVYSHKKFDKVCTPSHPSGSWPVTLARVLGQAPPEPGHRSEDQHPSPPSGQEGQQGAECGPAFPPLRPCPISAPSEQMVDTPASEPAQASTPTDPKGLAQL
T2 sequence (P56373 1-397): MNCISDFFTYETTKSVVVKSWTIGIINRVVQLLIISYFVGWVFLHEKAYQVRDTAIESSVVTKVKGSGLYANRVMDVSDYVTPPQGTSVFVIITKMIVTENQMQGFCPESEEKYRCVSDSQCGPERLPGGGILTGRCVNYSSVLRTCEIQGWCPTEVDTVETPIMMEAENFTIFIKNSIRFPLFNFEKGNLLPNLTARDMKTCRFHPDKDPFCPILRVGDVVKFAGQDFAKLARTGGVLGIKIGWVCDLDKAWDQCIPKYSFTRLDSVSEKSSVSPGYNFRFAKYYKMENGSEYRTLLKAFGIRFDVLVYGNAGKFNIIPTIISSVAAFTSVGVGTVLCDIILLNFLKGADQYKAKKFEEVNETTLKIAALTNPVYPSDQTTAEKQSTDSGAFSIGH
How it was run: as §1

Row | Structure (SMILES) | Ki (rat P2X3 receptor) [nM] | Ki (human P2X2/3 receptor) [nM]
1 | CCCc1ncnn1-c1cc(C(=O)N[C@@H](C)CO)cc(-c2ccc(Cl)cn2)c1 [Compound 111, 3-(5-Chloro-pyridin-2-yl)-N-((S)-2-hydroxy-1-methyl-ethyl)-5-(5-propyl-[1,2,4]triazol-1-yl)-benzamide] | 18.2 | 4900
2 | CCCc1ncnn1-c1cc(C(=O)NC2CC2)cc(-c2ccc(Cl)cn2)c1 [Compound 112, 3-(5-Chloro-pyridin-2-yl)-N-cyclopropyl-5-(5-propyl-[1,2,4]triazol-1-yl)-benzamide] | 10.2 | 1860
3 | CCCc1ncnn1-c1cc(C(=O)NC2CC2)cc(-c2ccc(C)cn2)c1 [Compound 113, N-Cyclopropyl-3-(5-methyl-pyridin-2-yl)-5-(5-propyl-[1,2,4]triazol-1-yl)-benzamide] | 4.57 | 1580
4 | CCCc1ncnn1-c1cc(C(=O)N[C@@H](C)CO)cc(-c2ccc(C)cn2)c1 [Compound 114, N-((S)-2-Hydroxy-1-methyl-ethyl)-3-(5-methyl-pyridin-2-yl)-5-(5-propyl-[1,2,4]triazol-1-yl)-benzamide] | 4.79 | 2880
5 | CCCc1ncnn1-c1cc(C(=O)NC(C)c2cnccn2)cc(-c2ccc(C)cn2)c1 (centres unmarked) [Compound 115, 3-(5-Methyl-pyridin-2-yl)-5-(5-propyl-[1,2,4]triazol-1-yl)-N-(1-pyrazin-2-yl-ethyl)-benzamide] | 3.31 | 79.4
6 | CCCc1ncnn1-c1cc(C(=O)NCc2cnc(C)cn2)cc(-c2ccc(C)cn2)c1 [Compound 116, N-(5-Methyl-pyrazin-2-ylmethyl)-3-(5-methyl-pyridin-2-yl)-5-(5-propyl-[1,2,4]triazol-1-yl)-benzamide] | 2.51 | 85.1
7 | Cc1ccc(-c2cc(C(=O)NCc3cnc(C)cn3)cc(-c3ncn(C(C)C)n3)c2)cc1 [Compound 117, 5-(1-Isopropyl-1H-[1,2,4]triazol-3-yl)-4′-methyl-biphenyl-3-carboxylic acid (5-methyl-pyrazin-2-ylmethyl)-amide] | 11.5 | 398
8 | Cc1ccc(-c2cc(C(=O)NC(C)c3cnccn3)cc(-n3ncnc3CC(C)C)c2)nc1 (centres unmarked) [Compound 118, 3-(5-Isobutyl-[1,2,4]triazol-1-yl)-5-(5-methyl-pyridin-2-yl)-N-(1-pyrazin-2-yl-ethyl)-benzamide] | 4.27 | 35.5
9 | Cc1ccc(-c2cc(C(=O)NCc3cnc(C)cn3)cc(-n3ncnc3CC(C)C)c2)nc1 [Compound 119, 3-(5-Isobutyl-[1,2,4]triazol-1-yl)-N-(5-methyl-pyrazin-2-ylmethyl)-5-(5-methyl-pyridin-2-yl)-benzamide] | 3.55 | 23.4
10 | CC(C)c1ncnn1-c1cc(C(=O)NC(C)c2cnccn2)cc(-c2ccc(Cl)cn2)c1 (centres unmarked) [Compound 120, 3-(5-Chloro-pyridin-2-yl)-5-(5-isopropyl-[1,2,4]triazol-1-yl)-N-(1-pyrazin-2-yl-ethyl)-benzamide] | 7.59 | 132
11 | Cc1cnc(CNC(=O)c2cc(-c3ccc(Cl)cn3)cc(-n3ncnc3C(C)C)c2)cn1 [Compound 121, 3-(5-Chloro-pyridin-2-yl)-5-(5-isopropyl-[1,2,4]triazol-1-yl)-N-(5-methyl-pyrazin-2-ylmethyl)-benzamide] | 5.89 | 107
12 | CC(C)c1ncnn1-c1cc(C(=O)N[C@@H](C)CO)cc(-c2ccc(Cl)cn2)c1 [Compound 122, 3-(5-Chloro-pyridin-2-yl)-N-((S)-2-hydroxy-1-methyl-ethyl)-5-(5-isopropyl-[1,2,4]triazol-1-yl)-benzamide] | 19.1 | 1290
13 | CC(C)c1ncnn1-c1cc(C(=O)NC2CC2)cc(-c2ccc(Cl)cn2)c1 [Compound 123, 3-(5-Chloro-pyridin-2-yl)-N-cyclopropyl-5-(5-isopropyl-[1,2,4]triazol-1-yl)-benzamide] | 11 | 871
